Results taken from US5798350A, “Dopamine receptor ligands” (Allelix Biopharmaceuticals, Inc., priority 1996, dated 1998).

Molecular target: T1, human D2 receptor (short isoform) (Homo sapiens, UniProt P14416)
T1 construct: membrane homogenate, 3H-spiperone displacement
Assay: D2 receptor binding, displacement of 3H-spiperone (GH4C1 cells), for D2/D4 selectivity
Details: for D2/D4: D4 selectivity, ratio D2/D4
Method: The potency of the test compound to reduce ^3 H-spiperone binding directly correlated to its binding affinity for the receptor.
GH4 C1 (rat pituitary) cells stably transfected with the human D2 receptor (short isoform) were grown in CO2 independent media in roller bottles (1500 cm^2) for 10 days. 100 μM ZnSO4 was added to the cells (the D2 promoter being zinc inducible). After 16 hours, fresh media was added to allow the cells to recover for 24 hours. The cells were harvested using versene and then centrifuged in a Sorval centrifuge for 10 minutes, at 5000 rpm (GS3 rotor). Pellets were quickly frozen in liquid nitrogen and stored at -80° C. until used in the binding assays. When used in the assay, cells were thawed on ice for 20 minutes. […] 10 mL of incubation buffer was added to the pellets which were then vortexed, resuspended and homogenized with a Kinematica CH-6010 Kriens-LU homogenizer for 15 seconds at setting 7. The receptor protein concentration was determined using the Pierce BCA assay.
Total Spiperone Binding Assay
The incubation was started by the addition of 500 μl (50 μg protein) membrane homogenate to a solution of 900 μl incubation buffer and 100 μl (0.25 nM final conc.) ^3 H-spiperone (90 Ci/mmol Amersham diluted in borosilicate glass vial) in 12×75 mm polypropylene tubes. The tubes were vortexed and incubated at room temperature for 90 minutes. The binding reaction was stopped by filtering using a Brandell Cell Harvester. The samples were filtered under vacuum over glass fibre filters (Whatman GF/B) presoaked for 2 hours in 0.3% polyethyleneimine (PEI) in 50 mM Tris buffer (pH7.4). The filters were then washed 3 times with 5 mL ice cold 50 mM Tris buffer (pH7.4). Individual filter disks were put in scintillation vials (Biovials, Bechman). Ready Protein Plus liquid scintillant (5 mL, Beckman) was added and the vials counted by liquid scintillation spectrophotometry (Beckman LSC 6500) after equilibrating for three hours at room temperature to determine total binding (BT).
Non-Specific Binding Assay for D2
This assay employed the same procedures as the non-specific binding assay for D4 with the exception that 2 μM (final conc.) of (-) sulpiride (Research Chemicals Inc.) was used in place of dopamine.
Displacement Binding Assay
The incubation was started by the addition to 12×75 mm polypropylene tubes 500 μl (50 μg protein) membrane homogenate to a solution of 400 μl incubation buffer, 100 μl (0.25 final conc.) ^3 H-spiperone (90Ci/mmol, Amersham, diluted in borosilicate glass vial to) and […] of test compound that was prepared from 1 mM stock dissolved in DMSO and stored at -20° C. in polypropylene cryogenic storage vials until dilution in incubation buffer in borosilicate glass vials. The tubes were vortexed and incubated at room temperature for 90 minutes at which time the binding reaction was stopped by filtering. The filters were washed and counted using the same procedure as in the total binding assay described above to give the displacement binding value (BD).
Specific binding in the absence of test compound (BO) was the difference of total binding (BT) minus non-specific binding (NSB) and similarly specific binding (in the presence of test compound) (B) was the difference of displacement binding (BD) minus non-specific binding (NSB). IC50 was determined from an inhibition response curve, logit-log plot of %B/BO vs concentration of test compound.
Ki was calculated by the Cheng and Prustoff transformation: […]
where [L] is the concentration of ^3 H-spiperone used in the assay and KD is the to dissociation constant of ^3 H-spiperone determined independently under the same binding conditions.

[1] = compared with corresponding 4-methyl piperazine compound

T1 sequence (P14416 with tags, fused parts or gaps DEL242-270): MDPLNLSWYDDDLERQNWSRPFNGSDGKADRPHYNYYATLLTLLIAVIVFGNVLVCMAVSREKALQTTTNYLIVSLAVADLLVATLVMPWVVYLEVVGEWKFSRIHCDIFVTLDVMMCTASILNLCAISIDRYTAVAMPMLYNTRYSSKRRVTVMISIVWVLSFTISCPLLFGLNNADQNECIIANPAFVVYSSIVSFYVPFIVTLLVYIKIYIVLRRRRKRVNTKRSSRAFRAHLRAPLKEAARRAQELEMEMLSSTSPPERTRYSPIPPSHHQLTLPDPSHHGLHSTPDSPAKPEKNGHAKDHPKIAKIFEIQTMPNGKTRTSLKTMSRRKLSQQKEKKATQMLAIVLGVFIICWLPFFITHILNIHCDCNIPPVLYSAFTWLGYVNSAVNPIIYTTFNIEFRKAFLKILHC

Row | D2/D4 | D4 selectivity (compared with clozapine) | Structure (SMILES) | D4 selectivity [1]
1 | 15.9 | better D4 selectivity than clozapine | Clc1ccc2c(c1)C=C(N1CCN(Cc3ccc4c(c3)OCO4)CC1)c1ccccc1S2 [2-chloro-10-(4-piperonyl-1-piperazinyl)dibenzo[b,f]thiepine] | –
2 | 24.9 | better D4 selectivity than clozapine | Clc1ccc2c(c1)Nc1ccccc1N=C2N1CCN(Cc2ccc3c(c2)OCO3)CC1 [3-chloro-11-(4-piperonyl-1-piperazinyl)-5H-dibenzo[b,e][1,4]diazepine] | –
3 | 23.8 | better D4 selectivity than clozapine | Clc1ccc2c(c1)N=C(N1CCN(Cc3ccc4c(c3)OCO4)CC1)c1ccccc1O2 [8-chloro-11-(4-piperonyl)-1-piperazinyl)dibenz[b,f][1,4]oxazepine] | better D4selectivity than the corresponding 4-methyl piperazine compound
4 | 32.7 | better D4 selectivity than clozapine | c1ccc2c(c1)N=C(N1CCN(Cc3ccc4c(c3)OCO4)CC1)c1ccccc1O2 [11-(4-piperonyl)-1-piperazinyl)-dibenz[b,f][1,4]oxazepine] | better D4selectivity than the corresponding 4-methyl piperazine compound
